From US20240174695A1, “Spirocycle Containing Bicyclic Heteroaryl Compounds” (Protego Biopharma, Inc., priority 2022, published 2024)
Also: test concentration or dose not given here.

These molecules were tested on Recombinant amyloidogenic full length light chain protein WIL-FL T46L (assay: Differential Scanning Fluorimetry Assay (thermal shift assay)). Details: Thermal Shift Protein Stability Kit (Biotium), 96-well plates; protein and compounds incubated at RT for 30 min before adding the dye.
Assay type: binding
Method: Differential Scanning Fluorimetry Assay
The stabilization effects the compounds have on the immunoglobulin light chain protein were quantitively measured using a thermal shift assay. Recombinant amyloidogenic full length light chain protein WIL-FL T46L was produced in E. coli, purified, and used in the assay. The Thermal Shift Protein Stability Kit from Biotium was used and the assay was done in 96-well plates following the manufacturer's instructions. The protein and compounds were incubated at RT for 30 min before adding the dye and subjected to the thermal shift assay. The thermal stability (Tm) of each sample was then determined using standard curve fitting methods and compared to vehicle. Data are expressed as temperature shift: [Tm]compound−[Tm]vehicle.
Results • 0-0.5° C.=* • >0.5-1° C.=** • >1-1.5° C.=*** • >1.5-2.5° C.=**** • >2.5° C.=*****
For `C[C@@H](COc1cc(CO)c2nc(C(O)CN3CC4(CN(c5ccnc(O)c5)C4)NC3=O)nn2c1)c1ccccc1` (stereo partly shown) [Compound 144], the “DSF temperature shift: [Tm]compound−[Tm]vehicle” value (“DSF temperature shift” for short) was “***** (>2.5° C.=*****)”.
With `CCC1(c2ccccc2)CCN(c2cc(C)c3nc(CCN4CC5(CCN(c6nccn7ccnc67)CC5)NC4=O)nn3c2)C1` (stereo not shown) [Compound 5] the “DSF temperature shift” value was “***** (>2.5° C.=*****)”.
`Cc1cc(OC[C@H](C)c2ccccc2)cn2nc(CCN3CC4(CCN(c5nc(F)cc(F)n5)CC4)NC3=O)nc12` [Compound 109] was tested, and the “DSF temperature shift” value was “**** (>1.5-2.5° C.=****)”.
For `Cc1cc(F)ncc1N1CCC2(CC1)CN(CC(O)c1nc3c(C)cc(OCC4(c5ccccc5)CC4)cn3n1)C(=O)N2` (stereo not shown) [Compound 36], the “DSF temperature shift” value was “**** (>1.5-2.5° C.=****)”.
With `COC(=O)c1cc(N2CC3(CN(CC(O)c4nc5c(C)cc(OC[C@H](C)c6ccccc6)cn5n4)C(=O)N3)C2)ccn1` (stereo partly shown) [Compound 137] the “DSF temperature shift” value was “***** (>2.5° C.=*****)”.
In the case of `Cc1cc(OC[C@H](C)c2ccccc2)cn2nc(C(O)CN3CC4(CCN(c5ccnc(O)c5)CC4)NC3=O)nc12` (stereo partly shown) [Compound 74], the “DSF temperature shift” value is reported as “**** (>1.5-2.5° C.=****)”.
`Cc1cc(OC[C@H](C)c2ccccc2)cn2nc(CCN3CC4(CCN(C(=O)c5ncccn5)CC4)NC3=O)nc12` [Compound 91] was tested, and the “DSF temperature shift” value was “**** (>1.5-2.5° C.=****)”.
With `Cc1cc(OC[C@H](C)c2ccccc2)cn2nc(CCN3CC4(CCN(c5ncc(F)cn5)C4)NC3=O)nc12` (stereo partly shown) [Compound 112] the “DSF temperature shift” value was “**** (>1.5-2.5° C.=****)”.
With `Cc1cc(N2CCC(C)(c3ccccc3)C2)cn2nc(CCN3CCCC4(CCN(c5nccn6cnnc56)CC4)C3=O)nc12` (stereo in doubt) [Compound 28, (R)-9-([1,2,4]triazolo[4,3-a]pyrazin-8-yl)-2-(2-(8-methyl-6-(3-methyl-3-phenylpyrrolidin-1-yl)-[1,2,4]triazolo[1,5-a]pyridin-2-yl)ethyl)-2,9-diazaspiro[5.5]undecan-1-one] the “DSF temperature shift” value was “***** (>2.5° C.=*****)”.
`Cc1cc(OCC2(c3ccccc3)CC2)cn2nc(C(O)CN3CC4(CCN(c5cnccn5)CC4)NC3=O)nc12` (stereo not shown) [Compound 58] was tested, and the “DSF temperature shift” value was “***** (>2.5° C.=*****)”.
With `Cc1cc(OC[C@H](C)c2ccccc2)cn2nc(C(O)CN3CC4(CN(c5ccnc(O)c5)C4)NC3=O)nc12` (stereo partly shown) [Compound 84] the “DSF temperature shift” value was “***** (>2.5° C.=*****)”.
For `Cc1cc(OCC2(c3ccccc3)CC2)cn2nc(C(O)CN3CC4(CCN(c5cnc(Cl)cn5)CC4)NC3=O)nc12` (stereo not shown) [Compound 55], the “DSF temperature shift” value was “**** (>1.5-2.5° C.=****)”.
With `Cc1nc(N2CCC3(CC2)CN(CCc2nc4c(C)cc(OC[C@H](C)c5ccccc5)cn4n2)C(=O)N3)no1` [Compound 123] the “DSF temperature shift” value was “**** (>1.5-2.5° C.=****)”.
With `Cc1cc(OC[C@H](C)c2ccccc2)cn2nc(C(O)CN3CC4(CN(c5ccnc(O)n5)C4)NC3=O)nc12` (stereo partly shown) [Compound 85] the “DSF temperature shift” value was “***** (>2.5° C.=*****)”.
With `Cc1cc(OC[C@H](C)c2ccccc2)cn2nc(CCN3CC4(CCN(S(=O)(=O)c5cccnc5)CC4)NC3=O)nc12` [Compound 125] the “DSF temperature shift” value was “**** (>1.5-2.5° C.=****)”.
With `C[C@@H](COc1cc(CO)c2nc(C(O)CN3CC4(CN(c5ccnc(O)c5)C4)OC3=O)nn2c1)c1ccccc1` (stereo partly shown) [Compound 145] the “DSF temperature shift” value was “***** (>2.5° C.=*****)”.
For `Cc1cc(OC[C@H](C)c2ccccc2)cn2nc(CCN3CC4(CCN(c5nccnc5F)CC4)NC3=O)nc12` [Compound 117], the “DSF temperature shift” value was “**** (>1.5-2.5° C.=****)”.
With `Cc1cc(OC[C@H](C)c2ccccc2)cn2nc(C(O)CN3CC4(CCN(c5cccc(O)n5)CC4)NC3=O)nc12` (stereo partly shown) [Compound 72] the “DSF temperature shift” value was “**** (>1.5-2.5° C.=****)”.
For `C[C@]1(c2ccccc2)CCN(c2cc(CO)c3nc(C(O)CN4CC5(CN(c6ccnc(O)c6)C5)NC4=O)nn3c2)C1` (stereo partly shown) [Compound 146], the “DSF temperature shift” value was “***** (>2.5° C.=*****)”.
For `Cc1cc(OCC2(c3ccccc3)CC2)cn2nc(C(O)CN3CC4(CCN(c5cnc(C#N)c(F)c5)CC4)NC3=O)nc12` (stereo not shown) [Compound 38], the “DSF temperature shift” value was “**** (>1.5-2.5° C.=****)”.
With `Cc1cc(OC[C@H](C)c2ccccc2)cn2nc(CCN3CC4(CCN(c5ncc(F)cn5)CC4)OC3=O)nc12` [Compound 114] the “DSF temperature shift” value was “*** (>1-1.5° C.=***)”.
`Cc1nc(F)ccc1N1CCC2(CC1)CN(CCc1nc3c(C)cc(OC[C@H](C)c4ccccc4)cn3n1)C(=O)N2` [Compound 101] was tested, and the “DSF temperature shift” value was “** (>0.5-1° C.=**)”.
In the case of `Cc1cc(OC[C@H](C)c2ccccc2)cn2nc(CCN3CC4(CN(c5ncc(F)cn5)C4)NC3=O)nc12` [Compound 127], the “DSF temperature shift” value is reported as “***** (>2.5° C.=*****)”.
`CCOC(=O)c1ccc(N2CCC3(CC2)CN(CC(O)c2nc4c(C)cc(OCC5(c6ccccc6)CC5)cn4n2)C(=O)N3)cn1` (stereo not shown) [Compound 130] was tested, and the “DSF temperature shift” value was “*** (>1-1.5° C.=***)”.
For `CNC(=O)c1cc(N2CCC3(CC2)CN(CC(C)(O)c2nc4c(C)cc(OC[C@H](C)c5ccccc5)cn4n2)C(=O)N3)ccn1` (stereo partly shown) [Compound 132], the “DSF temperature shift” value was “**** (>1.5-2.5° C.=****)”.
`Cc1cc(OCC2(c3ccccc3)CC2)cn2nc(C(O)CN3CC4(CCN(c5ccnc(O)c5)CC4)NC3=O)nc12` (stereo not shown) [Compound 45] was tested, and the “DSF temperature shift” value was “***** (>2.5° C.=*****)”.
In the case of `Cc1cc(OCC2(c3ccccc3)CC2)cn2nc(C(O)CN3CC4(CCN(c5ccnc(Cl)c5)CC4)NC3=O)nc12` (stereo not shown) [Compound 37], the “DSF temperature shift” value is reported as “**** (>1.5-2.5° C.=****)”.
With `Cc1cc(OC[C@H](C)c2ccccc2)cn2nc(C(C)(O)CN3CC4(CCN(C(=O)c5nncn5C)CC4)NC3=O)nc12` (stereo partly shown) [Compound 65] the “DSF temperature shift” value was “**** (>1.5-2.5° C.=****)”.
In the case of `Cc1cc(N2CC[C@@](C)(c3ccccc3)C2)cn2nc(C(O)CN3CC4(CN(c5cccc(C(=O)O)n5)C4)NC3=O)nc12` (stereo partly shown) [Compound 25], the “DSF temperature shift” value is reported as “***** (>2.5° C.=*****)”.
With `Cc1cc(N2CC[C@@](C)(c3ccccc3)C2)cn2nc(C(O)CN3CC4(CCN(c5nccn6ccnc56)CC4)NC3=O)nc12` (stereo partly shown) [Compound 22] the “DSF temperature shift” value was “***** (>2.5° C.=*****)”.
`Cc1cc(OC[C@H](C)c2ccccc2)cn2nc(C(O)CN3CC4(CCN(C(=O)c5ncn(C)n5)CC4)NC3=O)nc12` (stereo partly shown) [Compound 69] was tested, and the “DSF temperature shift” value was “**** (>1.5-2.5° C.=****)”.
With `Cc1cc(OC[C@H](C)c2ccccc2)cn2nc(C(O)CN3CC4(CCN(C5CCNC(=O)C5)CC4)NC3=O)nc12` (stereo partly shown) [Compound 79] the “DSF temperature shift” value was “**** (>1.5-2.5° C.=****)”.
`Cc1cc(N2CC[C@@](C)(c3ccccc3)C2)cn2nc(CCN3CC4(CCN(c5nccn6ccnc56)CC4)NC3=O)nc12` [Compound 3] was tested, and the “DSF temperature shift” value was “***** (>2.5° C.=*****)”.
In the case of `Cc1cc(OCC2(c3ccccc3)CC2)cn2nc(C(O)CN3CC4(CCN(c5ccc(C(=O)O)nc5)CC4)NC3=O)nc12` (stereo not shown) [Compound 48], the “DSF temperature shift” value is reported as “**** (>1.5-2.5° C.=****)”.
